Reference: patent US10968210B2, “Diamino-alkylamino-linked arylsulfonamide compounds with selective activity in voltage-gated sodium channels” (Merck Sharp & Dohme Corp., priority 2016, dated 2021)

What was measured:
[1] = biological target: T1, human Nav 1.7 channels stably expressed in HEK 293 cells (Homo sapiens, UniProt Q15858); experiment: IonWorks Quattro automated patch-clamp, inactivated state block of Nav 1.7; format: cell-based; details: double-pulse protocol, HEK 293 cells held at -100 mV, read-out: potency for the Nav 1.7 sodium ion channel (IC50, IonWorks)
T1 construct: expressed in transfected cells; host or cells: HEK 293
Experimental: (§1) IonWorks® Experimental Procedure
(§2) Compounds were tested on human Nav 1.7 and Nav 1.5 channels stably expressed in HEK 293 cells. Sodium current measurements on IonWorks Quattro: An automated patch-clamp assay on the IonWorks Quattro platform (Molecular Devices) was used to measure state-dependent inhibition of human Nav 1.7 and Nav 1.5 channels. Cells were sealed on a planar substrate using the Population Patch Plate (PPC) technology. Electrical access was obtained using both nystatin and amphotericin. A double-pulse protocol was used for the determination of IC50 values for inactivated state block. Nav 1.7 and Nav 1.5 expressing cells were voltage clamped at −100 mV and −110 mV, respectively. A depolarizing prepulse to −10 mV (Nav 1.7) or −30 mV (Nav 1.5) for 1000 ms followed by a 10 ms repolarization to ˜100 mV (Nav1.7) or −110 mV (Nav 1.5) was given to generate fractional channel inactivation of ˜50%, followed by a 10 ms test pulse to −10 mV (Nav 1.7) or −30 mV (Nav 1.5) to measure peak current in control conditions and after compound addition. The following recording solutions were used (mM). External: 150 NaCl, 2 CaCl2, 5 KCl, 1 Mg Cl2, 10 HEPES, 12 Dextrose; internal: 120 CsF, 30 CsCl, 10 EGTA, 5 HEPES, 5 NaF, 2 MgCl2.
(§3) For all electrophysiology experiments, offline analysis was used to determine percent inhibition as a function of drug concentration. IC50 values were determined by fitting to the Hill equation.
(§4) The various compounds in Examples 1 through 4 and Tables 1 through 3 exemplified above were assayed for activity and selectivity using the foregoing IonWorks® technique. The results are reported in the following paragraph in a format expressing the identification of the compound with reference Example and compound (e.g. Ex 1-9 is Example 1, compound 9) followed by the observed potency in nM and the ratio of Nav1.7 potency: Nav1.5 potency as described here. Thus, Ex1-9: 1.7=65/ratio=641 identifies compound Example 1, compound 9 as having 65 nM potency for the Nav 1.7 sodium ion channel (as measured by IonWorks®) and a ratio of 641 Nav 1.7: Nav 1.5 potency, determined by IonWorks® measurement.

[2] = biological target: T2, human Nav 1.5 channels stably expressed in HEK 293 cells (Homo sapiens, UniProt Q14524); experiment: IonWorks Quattro automated patch-clamp, inactivated state block of Nav 1.5 (reported as ratio to Nav 1.7 potency); format: cell-based; details: selectivity for Nav 1.7 over Nav 1.5, both by IonWorks
T2 construct: expressed in transfected cells; host or cells: HEK 293
Experimental: as §1, §2, §3, §4

T2 sequence (Q14524 whole entry): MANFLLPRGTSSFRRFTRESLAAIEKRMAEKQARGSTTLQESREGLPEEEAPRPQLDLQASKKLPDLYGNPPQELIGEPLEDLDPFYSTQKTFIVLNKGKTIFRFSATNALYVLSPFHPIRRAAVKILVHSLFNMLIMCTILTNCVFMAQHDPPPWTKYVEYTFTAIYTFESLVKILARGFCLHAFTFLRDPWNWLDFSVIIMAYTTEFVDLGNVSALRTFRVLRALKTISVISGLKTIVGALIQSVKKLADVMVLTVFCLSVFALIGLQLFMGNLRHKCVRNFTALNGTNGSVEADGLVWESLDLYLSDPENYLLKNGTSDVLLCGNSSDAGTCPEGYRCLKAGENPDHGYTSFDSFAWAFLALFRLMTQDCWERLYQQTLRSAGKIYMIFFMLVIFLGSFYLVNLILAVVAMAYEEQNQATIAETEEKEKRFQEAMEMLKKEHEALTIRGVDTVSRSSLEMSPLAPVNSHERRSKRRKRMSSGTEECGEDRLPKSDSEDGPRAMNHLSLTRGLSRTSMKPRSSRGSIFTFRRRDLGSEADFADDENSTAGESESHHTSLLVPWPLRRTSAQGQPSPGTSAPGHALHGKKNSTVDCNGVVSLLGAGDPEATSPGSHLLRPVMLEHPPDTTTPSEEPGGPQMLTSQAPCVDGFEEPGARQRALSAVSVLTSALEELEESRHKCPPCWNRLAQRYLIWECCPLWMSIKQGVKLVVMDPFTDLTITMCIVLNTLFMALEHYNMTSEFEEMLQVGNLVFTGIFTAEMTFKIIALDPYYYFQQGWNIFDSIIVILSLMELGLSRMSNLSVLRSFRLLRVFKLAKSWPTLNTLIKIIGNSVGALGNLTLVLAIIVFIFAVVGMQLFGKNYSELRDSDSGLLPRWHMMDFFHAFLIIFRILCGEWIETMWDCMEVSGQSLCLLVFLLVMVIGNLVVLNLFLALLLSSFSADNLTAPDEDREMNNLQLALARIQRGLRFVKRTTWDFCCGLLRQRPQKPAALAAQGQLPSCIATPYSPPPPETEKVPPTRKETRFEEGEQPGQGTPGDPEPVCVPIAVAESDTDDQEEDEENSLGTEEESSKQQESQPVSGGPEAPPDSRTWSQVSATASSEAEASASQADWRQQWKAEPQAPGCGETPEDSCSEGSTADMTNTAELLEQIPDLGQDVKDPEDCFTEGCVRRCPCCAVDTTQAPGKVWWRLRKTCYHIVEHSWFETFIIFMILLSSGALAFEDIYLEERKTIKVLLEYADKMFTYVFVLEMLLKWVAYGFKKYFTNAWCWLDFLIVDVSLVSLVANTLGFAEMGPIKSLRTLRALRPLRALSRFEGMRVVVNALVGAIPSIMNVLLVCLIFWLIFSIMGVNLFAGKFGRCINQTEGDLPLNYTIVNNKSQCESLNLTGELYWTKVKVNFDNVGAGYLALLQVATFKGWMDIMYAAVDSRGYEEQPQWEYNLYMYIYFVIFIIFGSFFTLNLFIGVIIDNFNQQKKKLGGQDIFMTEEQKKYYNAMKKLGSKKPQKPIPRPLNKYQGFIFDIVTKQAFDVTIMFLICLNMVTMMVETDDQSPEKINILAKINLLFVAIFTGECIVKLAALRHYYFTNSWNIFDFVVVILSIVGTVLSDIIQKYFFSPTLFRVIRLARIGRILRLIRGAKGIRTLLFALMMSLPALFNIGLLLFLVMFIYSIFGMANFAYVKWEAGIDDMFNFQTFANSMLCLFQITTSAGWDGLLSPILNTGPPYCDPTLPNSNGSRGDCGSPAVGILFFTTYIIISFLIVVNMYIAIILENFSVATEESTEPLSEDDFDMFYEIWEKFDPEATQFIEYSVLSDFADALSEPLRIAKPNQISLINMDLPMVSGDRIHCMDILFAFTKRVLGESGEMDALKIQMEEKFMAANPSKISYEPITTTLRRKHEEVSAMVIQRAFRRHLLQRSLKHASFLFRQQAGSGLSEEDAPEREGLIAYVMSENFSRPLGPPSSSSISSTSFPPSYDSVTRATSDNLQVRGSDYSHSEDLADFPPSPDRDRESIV
T1 sequence (Q15858 whole entry): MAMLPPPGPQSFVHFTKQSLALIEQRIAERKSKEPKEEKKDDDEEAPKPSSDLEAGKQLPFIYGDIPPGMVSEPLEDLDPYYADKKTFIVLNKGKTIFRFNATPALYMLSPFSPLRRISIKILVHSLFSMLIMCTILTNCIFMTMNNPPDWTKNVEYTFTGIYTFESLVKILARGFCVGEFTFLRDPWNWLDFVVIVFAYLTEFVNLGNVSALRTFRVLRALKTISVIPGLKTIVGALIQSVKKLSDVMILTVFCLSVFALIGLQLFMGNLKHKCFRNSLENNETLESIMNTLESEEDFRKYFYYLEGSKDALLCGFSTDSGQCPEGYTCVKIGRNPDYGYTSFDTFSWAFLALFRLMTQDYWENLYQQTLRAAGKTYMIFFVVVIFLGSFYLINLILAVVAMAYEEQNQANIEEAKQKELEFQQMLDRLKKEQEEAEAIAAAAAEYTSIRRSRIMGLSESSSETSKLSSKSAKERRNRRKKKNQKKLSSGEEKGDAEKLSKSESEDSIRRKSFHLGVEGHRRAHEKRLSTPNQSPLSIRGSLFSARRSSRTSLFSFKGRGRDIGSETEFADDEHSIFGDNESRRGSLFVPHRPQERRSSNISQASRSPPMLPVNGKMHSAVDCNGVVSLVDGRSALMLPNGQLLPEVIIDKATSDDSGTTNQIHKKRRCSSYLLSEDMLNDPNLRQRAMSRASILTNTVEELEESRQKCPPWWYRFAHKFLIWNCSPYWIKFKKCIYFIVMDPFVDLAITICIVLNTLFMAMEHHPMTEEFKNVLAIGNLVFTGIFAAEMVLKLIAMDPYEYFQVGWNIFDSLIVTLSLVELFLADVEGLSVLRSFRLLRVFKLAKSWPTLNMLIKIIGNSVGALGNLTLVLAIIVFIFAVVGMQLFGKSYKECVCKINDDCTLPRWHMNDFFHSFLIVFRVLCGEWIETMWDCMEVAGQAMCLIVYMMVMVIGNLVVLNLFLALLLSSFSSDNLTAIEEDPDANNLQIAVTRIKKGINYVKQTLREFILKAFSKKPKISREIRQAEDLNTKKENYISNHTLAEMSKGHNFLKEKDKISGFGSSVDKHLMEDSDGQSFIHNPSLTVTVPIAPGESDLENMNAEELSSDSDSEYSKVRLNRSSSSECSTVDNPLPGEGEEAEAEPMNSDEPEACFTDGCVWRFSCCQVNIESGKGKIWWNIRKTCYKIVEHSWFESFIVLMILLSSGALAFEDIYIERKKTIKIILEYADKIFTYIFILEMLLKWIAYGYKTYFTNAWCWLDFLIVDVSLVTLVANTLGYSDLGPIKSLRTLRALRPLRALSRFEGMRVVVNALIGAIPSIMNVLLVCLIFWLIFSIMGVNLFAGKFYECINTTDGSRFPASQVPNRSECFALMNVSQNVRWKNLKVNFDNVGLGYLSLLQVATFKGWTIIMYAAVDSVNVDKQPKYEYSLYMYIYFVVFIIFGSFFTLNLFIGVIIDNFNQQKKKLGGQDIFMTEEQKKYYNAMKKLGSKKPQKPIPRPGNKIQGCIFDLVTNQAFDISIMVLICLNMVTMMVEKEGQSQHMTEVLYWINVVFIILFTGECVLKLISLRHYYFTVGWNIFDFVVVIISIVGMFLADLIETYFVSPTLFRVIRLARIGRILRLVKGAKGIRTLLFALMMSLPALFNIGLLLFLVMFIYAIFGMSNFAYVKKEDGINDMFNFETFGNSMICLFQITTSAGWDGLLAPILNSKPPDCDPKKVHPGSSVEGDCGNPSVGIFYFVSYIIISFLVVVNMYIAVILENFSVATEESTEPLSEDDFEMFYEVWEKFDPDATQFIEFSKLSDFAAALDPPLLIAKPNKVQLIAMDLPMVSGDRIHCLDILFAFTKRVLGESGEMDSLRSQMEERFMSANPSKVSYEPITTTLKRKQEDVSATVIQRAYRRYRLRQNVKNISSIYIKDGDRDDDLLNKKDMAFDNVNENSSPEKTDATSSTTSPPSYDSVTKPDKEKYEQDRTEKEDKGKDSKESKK

IC50 [1] [nM]	Structure (SMILES)	ratio of Nav 1.7 : Nav 1.5 potency (IonWorks) [2]
37	O=S(=O)(Nc1nccs1)c1cc(Cl)c(NCCCCNC2CNCC(c3ccccc3)C2)cc1F (stereo not drawn) [Ex 1-31, 5-chloro-2-fluoro-4-({4-[(5-phenylpiperidin-3-yl)amino]butyl}amino)-N-1,3-thiazol-2-ylbenzenesulfonamide]	> 890
38	O=S(=O)(Nc1nccs1)c1cc(Cl)c(NCCCCN2CCC3(CCCN3)CC2)cc1F [Ex 1-14, 5-chloro-4-{[4-(1,8-diazaspiro[4.5]dec-8-yl)butyl]amino}-2-fluoro-N-1,3-thiazol-2-ylbenzenesulfonamide]	> 870
7.9	O=S(=O)(Nc1nccs1)c1cc(Cl)c(NCCCCNCC2Cc3ccccc3CN2)cc1F (single isomer, unassigned) [Ex 1-18, (R or S)-5-chloro-2-fluoro-4-({4-[(1,2,3,4-tetrahydroisoquinolin-3-ylmethyl)amino]butyl}amino)-N-1,3-thiazol-2-ylbenzenesulfonamide]	> 4177
79	C[C@@H](N)CNCCCCCNc1cc(F)c(S(=O)(=O)Nc2nccs2)cc1Cl [Ex 9-05, 4-[(5-{[(2R)-2-aminopropyl]-amino}penty)amino]-5-chloro-2-fluoro-N-1,3-thiazol-2-yl-benzenesulfonamide]	> 420
56	N[C@H]1[C@@H]2CC[C@H]1N(CCCCNc1cc(F)c(S(=O)(=O)Nc3nccs3)cc1Cl)C2 [Ex 1-20, 4-({4-[(1R,4R,7S)-7-amino-2-azabicyclo[2.2.1]hept-2-yl]butyl}amino)-5-chloro-2-fluoro-N-1,3-thiazol-2-ylbenzenesulfonamide]	> 590
17	O=S(=O)(Nc1nccs1)c1cc(Cl)c(NCCCC(Cc2ccccc2)NC[C@@H]2CCCN2)cc1F (stereo partly drawn) [Ex 6-9, 5-chloro-2-fluoro-4-[(5-phenyl-4-{[(2S)-pyrrolidin-2-ylmethyl]amino}pentyl)amino]-N-1,3-thiazol-2-ylbenzenesulfonamide]	1530
33	NC1CCN(CCCCNc2cc(F)c(S(=O)(=O)Nc3nccs3)cc2Cl)CC1 [Ex 1-49, 4-{[4-(4-aminopiperidin-1-yl)butyl]amino}-5-chloro-2-fluoro-N-1,3-thiazol-2-ylbenzenesulfonamide]	> 1000
7	O=S(=O)(Nc1nccs1)c1cc(Cl)c(NCCCCNCCNCc2ccccc2)cc1F [Ex 1-3, 4-[(4-{[2-(benzylamino)ethyl]amino}butyl)amino]-5-chloro-2-fluoro-N-1,3-thiazol-2-ylbenzenesulfonamide]	> 4700
87	N#C[C@H]1CN[C@H](CNCCCCNc2cc(F)c(S(=O)(=O)Nc3nccs3)cc2Cl)C1 [Ex 8-7, 5-chloro-4-{[4-({[(2S,4R)-4-cyanopyrrolidin-2-yl]-methyl}amino)butyl]amino}-2-fluoro-N-1,3-thiazol-2-ylbenzenesulfonamide]	> 380
22	NCC1CCN(CCCCNc2cc(F)c(S(=O)(=O)Nc3nccs3)cc2Cl)C1 (stereo not drawn) [Ex 1-47, 4-({4-[3-(aminomethyl)pyrrolidin-1-yl]butyl}amino)-5-chloro-2-fluoro-N-1,3-thiazol-2-ylbenzenesulfonamide]	> 1500
14	CN[C@@H]1CCN(CCCCNc2cc(F)c(S(=O)(=O)Nc3ncns3)cc2Cl)C1 [Ex 16-03, 5-chloro-2-fluoro-4-({4-[(3R)-3-(methylamino)pyrrolidin-1-yl]-butyl}-amino)-N-1,2,4-thiadiazol-5-ylbenzene-sulfonamide]	1930
26	O=S(=O)(Nc1nccs1)c1cc(Cl)c(NCCCCN2C[C@H]3CNC[C@H]3C2)cc1F [Ex 1-22, 5-chloro-2-fluoro-4-({4-[(3aR,6aS)-hexahydropyrrolo[3,4-c]pyrrol-2(1H)-yl]butyl}amino)-N-1,3-thiazol-2-ylbenzenesulfonamide]	> 1270
32	O=S(=O)(Nc1nccs1)c1cc(Cl)c(NCCCCNC[C@@H]2C[C@@H](c3ccccc3)CN2)cc1F [Ex 8-4, 5-chloro-2-fluoro-4-{[4-({[(2S,4S)-4-phenyl-pyrrolidin-2-yl]methyl}-amino)butyl]amino}-N-1,3-thiazol-2-yl-benzenesulfonamide]	> 1030
200	O=S(=O)(Nc1nccs1)c1cc(Cl)c(NCCCCCNCC2CCN2)cc1F (stereo not drawn) [Ex 9-06, 4-({5-[(azetidin-2-ylmethyl)amino]-pentyl}amino)-5-chloro-2-fluoro-N-1,3-thiazol-2-yl-benzenesulfonamide]	> 160
59	O=S(=O)(Nc1nccs1)c1cc(Cl)c(NCCCCNC[C@@H]2CC(F)(F)CN2)cc1F [Ex 8-2, (S)-5-chloro-4-((4-(((4,4-difluoropyrrolidin-2-yl)methyl)amino)butyl)amino)-2-fluoro-N-(thiazol-2-yl)benzenesulfonamide]	460
42	NCC1CCN1CCCCNc1cc(F)c(S(=O)(=O)Nc2nccs2)cc1Cl (single isomer, unassigned) [Ex 16-53, (S or R)-4-({4-[2-(aminomethyl)-azetidin-1-yl]butyl}amino)-5-chloro-2-fluoro-N-1,3-thiazol-2-ylbenzene-sulfonamide]	> 786
41	O=S(=O)(Nc1nccs1)c1ccc(NCCCCNC[C@@H]2CCCN2)c(C(F)(F)F)c1 [Ex 7-04, 4-[(4-{[(2S)-pyrrolidin-2-ylmethyl]amino}butyl)amino]-N-1,3-thiazol-2-yl-3-(trifluoromethyl)benzenesulfonamide]	> 800
1.9	O=S(=O)(Nc1ncc(F)s1)c1cc(Cl)c(NCCCCNCCNC2C3CC4CC(C3)CC2C4)cc1F (stereo not drawn) [Ex 16-07, 5-chloro-2-fluoro-N-(5-fluoro-1,3-thiazol-2-yl)-4-[(4-{[2-(tricyclo[3.3.1.1~3,7~]dec-2-yl-amino)-ethyl]amino}butyl)-amino]-benzene-sulfonamide]	> 17400
79	O=S(=O)(Nc1nccs1)c1cc(Cl)c(NCCCCN2CCCNCC2)cc1F [Ex 1-53, 5-chloro-4-{[4-(1,4-diazepan-1-yl)butyl]-amino}-2-fluoro-N-1,3-thiazol-2-yl-benzenesulfonamide]	> 418
34	NCC(F)CNCCCCNc1cc(F)c(S(=O)(=O)Nc2ncc(F)s2)cc1Cl (stereo not drawn) [Ex 16-46, 4-({4-[(3-amino-2-fluoro-propyl)amino]butyl}amino)-5-chloro-2-fluoro-N-(5-fluoro-1,3-thiazol-2-yl)-benzenesulfonamide]	> 970
64	COc1cccc(CC2(CNCCCCNc3cc(F)c(S(=O)(=O)Nc4nccs4)cc3Cl)CCCN2)c1 (stereo not drawn) [Ex 1-34, 5-chloro-2-fluoro-4-{[4-({[2-(3-methoxy-benzyl)-pyrrolidin-2-yl]methyl}-amino)-butyl]amino}-N-1,3-thiazol-2-yl-benzenesulfonamide]	> 510
35	O=S(=O)(Nc1nccs1)c1cc(Cl)c(NCC2CCCC(NCC3CCCN3)C2)cc1F (single isomer, unassigned) [Ex 6-7 Enantiomer B, 5-chloro-2-fluoro-4-((((1S,3R or 1R,3S)-3-(((S)-pyrrolidin-2-ylmethyl)amino)cyclohexyl)methyl)amino)-N-(thiazol-2-yl)benzenesulfonamide]	> 940
23	O=S(=O)(Nc1nccs1)c1cc(Cl)c(NCCCCN2CCC3CNCC3C2)cc1F (stereo not drawn) [Ex 1-48, 5-chloro-2-fluoro-4-{[4-(octahydro-5H-pyrrolo[3,4-c]pyridin-5-yl)butyl]amino}-N-1,3-thiazol-2-ylbenzenesulfonamide]	> 1434
27	O=S(=O)(Nc1nccs1)c1ccc(NCCCCNC[C@@H]2CCCN2)c(Cl)c1 [Ex 7-12, 3-chloro-4-[(4-{[(2S)-pyrrolidin-2-ylmethyl]amino}butyl)amino]-N-1,3-thiazol-2-ylbenzenesulfonamide]	> 1200
